{
  "source": "patent US20040156802A1",
  "about": "“Cosmetics or external preparations for skin” (priority 2001, published 2004)",
  "key": {"[1]": {"system": "rabbits (New Zealand White species, male)", "test": "Test on the primary irritation of the skin", "format": "in vivo, rabbit", "settings": "for Evaluation Value For irritation: alone, shaved rabbit back, blocked 24 hours; for effect on the primary irritation of the skin when used in combination with the irritant: in comparison with the irritant used singly, rabbit", "protocol": "Each back portion of rabbits (New Zealand White species, male) was shaved and each of the test compounds was applied thereto. Each of the test compound-applied portions was blocked for 24 hours, After 24, 48, 72 and 168 hours from the time of applying the test compound, the judgments were conducted for the erythema and edema appeared on the test compound-applied portion based on their standards indicated in table 1. The average evaluation value in each time at which the judgment was conducted was calculated (the value obtained by dividing the combined value of the evaluation value for erythema and that for edema by the number of animal used in the test). In addition, the average evaluation value in each time at which the judgment was conducted was all added up and the total value was divided by the number of judgment (4 times) to make the evaluation value of the primary initation."}, "adult men [2]": {"system": "adult men", "test": "Test in human on function of inhibiting the irritation induced by an organic acid (test solution applied 3 minutes before glycolic acid)", "format": "in vivo", "settings": "glycolic acid concentration: 10%", "protocol": "A series of tests were conducted by four adult men with respect to the function of inhibiting the irritation of the skin induced an organic acid. There were prepared a solution of glycolic acid dissolved in a 25% aqueous ethanol solution (the concentration of glycolic acid: 10%) and a test solution of N, N′-diacetyl-L-cystine dimethyl ester dissolved in the same solvents (the concentration of N, N′-diacetyl-L-cystine dimethyl ester: 10%). A solution of only the solvent was separately prepared as the control solution. After all of the panelists washed their faces, either test solution or control solution was applied to each right cheek of the their faces with a cotton bud. After additional 3 minutes, the glycolic acid solution was applied to the same portion as in the above and the irritation which each of the panelists felt was recorded as the score every a minute after a minute from the time of applying the glycolic acid solution for 10 minutes based on its evaluation standards shown below. […] After additional 3 minutes, the glycolic acid solution was applied to the same portion and the irritation which each of the panelists felt at the applied portion was similarly recorded as the score every a minute after a minute from the time of applying the glycolic acid solution for 10 minutes. […]"}, "adult men [3]": {"system": "adult men", "test": "Test in human on function of inhibiting the irritation induced by an organic acid (solution B applied 4 minutes before glycolic acid solution A)", "format": "in vivo", "settings": "glycolic acid concentration: 20%", "protocol": "A series of tests were conducted by three adult men with respect to the function of inhibiting the irritation of the skin induced an organic acid. […] After all of the panelists washed their faces, solution B (or solution C) was applied to each right cheek (or each left cheek) of the their faces with a cotton bud. […] The irritation which each of the panelists felt at the solution-applied portion was recorded as the score every a minute after a minute from the time of applying the solution for 5 minutes based on its evaluation standards shown below. In addition, the function of the test compound (N, N′-diacetyl-L-cystine dimethyl ester) for inhibiting the irritation was judged based on the judging standards shown below."}, "an adult": {"system": "an adult", "test": "Test in human on function of inhibiting erythema and irritation (tape-stripped forearm, protopic ointment)", "format": "in vivo", "settings": "skin where the barrier function was reduced by tape stripping (30 times)", "protocol": "A series of tests were conducted by an adult With respect to the function of inhibiting the skin erythema and irritation induced by an organic acid. A test solution of N, N′-diacetyl-L-cystine dimethyl ester dissolved in a 25% aqueous ethanol solution (the concentration of N, N′-diacetyl-L-cystine dimethyl ester; 10%) was prepared. A solution of only the solvents was separately prepared as control solution. 30 Times of tape stripping were conducted on the inward portion of the panelist's forearm. To the portion which the tape stripping procedures have been conducted was applied {circle over (2)} test solution (or control solution) in addition to {circle over (1)} control (any solvent is not applied). After 4 minutes, to each of the portions ({circle over (1)} control portion (both forearms) {circle over (2)} test solution-applied portion and {circle over (3)} control solution-applied portion) was applied protopic ointment (tacrolimus: 1 mg/g), and the erytherma and irritation appeared on each of the portions after an additional 5 minutes were evaluated. […] In the skin where the barrier function of the skin was reduced by tape stripping (30 times), erytherma and irritation caused by the protopic ointment were suppressed by N, N′-diacetyl-L-cystine dimethyl ester."}, "[4]": {"settings": "concentration 3%, erythema + edema averaged over 24, 48, 72 and 168 hours"}},
  "note": "Several values for one entry are separate records, joined by “and”; a condition that tells them apart may be missing. Equal values may be shown once.",
  "data": [
    {"molecule": "CC(O)C(=O)O", "note": "(stereo not drawn) [Lactic acid]", "values": [
      {"measurement": "Evaluation Value For irritation", "setting": "[1]; concentration 70%, erythema + edema averaged over 24, 48, 72 and 168 hours", "value": 1.4}
    ]},
    {"molecule": "COC(=O)[C@H](CSSC[C@H](NC(C)=O)C(=O)OC)NC(C)=O", "note": "[N,N′-diacetyl-L-cystine dimethyl ester]", "values": [
      {"measurement": "effect on the primary irritation of the skin when used in combination with the irritant", "setting": "[1]", "value": "mitigates the primary irritation of the skin"},
      {"measurement": "inhibitory function in human toward irritation caused by glycolic acid", "setting": "adult men [2]", "value": "exhibited inhibitory function"},
      {"measurement": "inhibitory function in human toward irritation caused by glycolic acid", "setting": "adult men [3]", "value": "exhibited inhibitory function"},
      {"measurement": "erythema and irritation caused by the protopic ointment", "setting": "an adult", "value": "suppressed"}
    ]},
    {"molecule": "CCCCCCCC(=O)N[C@@H](CSSC[C@H](NC(=O)CCCCCCC)C(=O)OC)C(=O)OC", "note": "[N,N′-dioctanoyl-L-cystine dimethyl ester]", "values": [
      {"measurement": "effect on the primary irritation of the skin when used in combination with the irritant", "setting": "[1]", "value": "mitigates the primary irritation of the skin"}
    ]},
    {"molecule": "CCCCCCCCCCCCOS(=O)(=O)[O-].[Na+]", "note": "[Sodium lauryl sulfate]", "values": [
      {"measurement": "Evaluation Value For irritation", "setting": "[1]; concentration 5%, erythema + edema (each 0-4) averaged over judgments at 24, 48, 72 and 168 hours, sulfate", "value": "6.6 and 6.4"}
    ]},
    {"molecule": "CCCCCCCCCCCCCCCCCC[N+](C)(C)C.[Cl-]", "note": "[Stearyl trimethyl ammonium chloride]", "values": [
      {"measurement": "Evaluation Value For irritation", "setting": "[1]; [4]", "value": 3.7}
    ]},
    {"molecule": "Benzalkonium chloride", "values": [
      {"measurement": "Evaluation Value For irritation", "setting": "[1]; [4]", "value": 5.3}
    ]}
  ]
}
